Data set [1] has as its target GSK3α (Homo sapiens (Human), UniProt P49840). Nature of the data set: AT8 (pS202/pThr205) tau phosphorylation FRET assay, GSK3α-transfected cells. The class given is cell-based. To be noted: GSK3α and GSK3β transfected cells.
Procedure: 293T cells stably expressing human 2N4R Tau were transfected with appropriate cDNA plasmids. 24 hours following transfection cells were treated with compound in a 10-point dose-response (from 1000× stocks of compound) and lysates harvested 2 hours later with cell extraction buffer (Life Technologies Cat #BN0001) or RIPA Buffer with Halt protease/phosphatase inhibitors added.
For AT8 assay: FRET antibodies (Custom designed Cisbio assay kit; S202/T205 Tb and total Tau D2 FRET antibodies) were added to lysate in a 384 well assay plate at 1:4 ratio (antibody/lysate). After antibody addition, the plate was left at room temperature for 60 minutes incubation time. Plate was read with appropriate wavelength settings using an Envision plate reader (ex320 and em620 and em665).
Another data set has as its target NanoLuc-GSK3α (Homo sapiens (Human), UniProt P49840). Nature of the data set: NanoBRET residence time, GSK3α. To be noted: inhibitor at 10× IC50, BRET every 5 min for 3 hours. In kind it is cell-based.
Data set [2] in a line: Drug exposure in blood and brain, free drug concentration in the brain. In kind it is in vivo, Sprague Dawley rats. To be noted: P10 rats. The protocol: Sprague Dawley rats were bred in-house and litters were injected with compound, I.P. at post-natal day 10. Rats were then euthanized at indicated times following drug administration. For tissue collection, animals were euthanized via decapitation, brains were quickly removed, and bisected sagitally. The right cortex, was isolated, placed into 2 mL microtubes along with a single 5 mm stainless steel bead and the left cortex were placed into 2 mL Lysing Matrix A tubes (MP Biomedicals, Santa Ana, CA), Both tubes were immediately snap frozen in liquid nitrogen.
Aqueous buffered homogenate was created from cortical tissue via bead beater, at a consistent homogenization factor, which was normalized by tissue weight. Total drug in brain was determined by measuring total exposure in brain in ng/ml (cortical tissue) via LC-MS/MS. This was then corrected to free concentration via an experimentally derived fu,br using rapid equilibrium dialysis with brain homogenate.
To determine drug exposure, blood and cortical tissue were analyzed at each time point following dosing.

The target of data set [3] is GSK3α (Rattus norvegicus (Rat), UniProt P18265). Nature of the data set: In vivo target engagement assay (chemoproteomics, kinobeads), GSK3α. Particulars: P10 rat cortex. As to the method:
Chemoproteomics competition was used to evaluate inhibitor selectivity and target engagement in vivo. Frozen cortexes were prepared for homogenization with 1.2 mL of Lysis Buffer (50 mM Tris-HCl, 0.8% NP-40 ((octylphenoxy poly(ethyleneoxy) ethanol)), 5% glycerol, 150 mM NaCl, 1.5 mM MgCl2, 25 mM NaF, 1 mM sodium vanadate, 1 mM DTT, pH 7.5 and supplemented with protease inhibitors). Tissues were homogenized in FastPrep-24 5G instrument at maximum oscillations for 20 seconds. The resulting brain homogenate was clarified by centrifugation for 1 h at 145 000 g, 4° C. The protein concentration of the supernatant was determined by BCA assay and each sample was diluted to final concentration of 5 mg/mL with lysis buffer. […] The dry peptide mixture was reconstituted in 15 μL of 0.1% trifluoro acetic acid and analyzed on ID nanoLC-MS/MS platform using a standardized 140 min method. Peptides were separated on an Easy-Spray column (75 μm×50 cm, PepMAP C18, 1.9 μm) at 250 nL/min, analyzed on a QExactive HF mass spectrometer at data dependent acquisition (DDA) mode with MS1 at 60,000 and MS2 at 15,000 resolution, respectively. […]
To measure direct target engagement of the compound for both GSK3α and GSK3β competitive chemoproteomics methodology was used. […] Enriched proteins were analyzed by liquid chromatography coupled with tandem mass spectrometry. […]

Data set [4] addresses GSK3α (GST-full length GSK3α) (Homo sapiens (Human), UniProt P49840). Nature of the data set: GSK3α TR-FRET kinase assay. To be noted: geometric mean, GMean. The class given is biochemical. In short, it runs like this: (§1)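 Full-length GST-tagged human enzyme (1 nM) is exposed to test compound for 30 min before substrates are added. Phosphorylation of a primed biotinylated glycogen synthase peptide proceeds 100 min at room temperature at low ATP (4 μM α; 2 μM β) or high ATP (1 mM). Product is quantified by TR-FRET.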

For data set [5], the target named is GSK3b (GST-full length GSK3b) (Homo sapiens (Human), UniProt P49841). Nature of the data set: GSK3b TR-FRET kinase assay. In kind it is biochemical. To be noted: geometric mean, GMean. Summed up: as §1
GSK3b (GST-full length GSK3b), sequence (P49841 whole entry): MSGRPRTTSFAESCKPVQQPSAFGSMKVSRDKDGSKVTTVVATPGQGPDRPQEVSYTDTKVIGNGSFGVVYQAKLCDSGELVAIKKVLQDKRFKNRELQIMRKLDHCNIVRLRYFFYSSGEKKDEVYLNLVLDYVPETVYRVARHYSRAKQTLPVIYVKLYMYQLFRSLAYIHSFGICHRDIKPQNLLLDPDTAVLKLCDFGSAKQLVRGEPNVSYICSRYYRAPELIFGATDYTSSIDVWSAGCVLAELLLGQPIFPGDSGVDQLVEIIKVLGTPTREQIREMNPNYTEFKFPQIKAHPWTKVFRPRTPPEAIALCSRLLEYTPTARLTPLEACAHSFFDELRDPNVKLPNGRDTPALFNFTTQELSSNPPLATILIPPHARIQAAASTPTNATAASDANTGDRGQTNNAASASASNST

Where two headings read alike, the source gives them in different places.

GSK3α (Rattus norvegicus (Rat), UniProt P18265), sequence (P18265 whole entry): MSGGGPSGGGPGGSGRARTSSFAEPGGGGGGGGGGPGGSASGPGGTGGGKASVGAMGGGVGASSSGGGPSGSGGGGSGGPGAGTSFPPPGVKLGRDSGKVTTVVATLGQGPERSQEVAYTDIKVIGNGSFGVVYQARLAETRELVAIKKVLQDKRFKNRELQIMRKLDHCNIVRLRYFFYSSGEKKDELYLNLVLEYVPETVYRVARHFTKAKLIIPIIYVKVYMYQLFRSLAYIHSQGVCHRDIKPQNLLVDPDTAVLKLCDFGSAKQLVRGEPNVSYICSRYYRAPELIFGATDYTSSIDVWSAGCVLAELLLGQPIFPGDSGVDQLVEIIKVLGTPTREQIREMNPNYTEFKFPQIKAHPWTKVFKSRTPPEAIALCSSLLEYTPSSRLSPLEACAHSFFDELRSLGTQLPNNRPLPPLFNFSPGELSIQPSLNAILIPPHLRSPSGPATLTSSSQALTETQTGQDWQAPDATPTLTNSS
GSK3α (GST-full length GSK3α), sequence (P49840 whole entry): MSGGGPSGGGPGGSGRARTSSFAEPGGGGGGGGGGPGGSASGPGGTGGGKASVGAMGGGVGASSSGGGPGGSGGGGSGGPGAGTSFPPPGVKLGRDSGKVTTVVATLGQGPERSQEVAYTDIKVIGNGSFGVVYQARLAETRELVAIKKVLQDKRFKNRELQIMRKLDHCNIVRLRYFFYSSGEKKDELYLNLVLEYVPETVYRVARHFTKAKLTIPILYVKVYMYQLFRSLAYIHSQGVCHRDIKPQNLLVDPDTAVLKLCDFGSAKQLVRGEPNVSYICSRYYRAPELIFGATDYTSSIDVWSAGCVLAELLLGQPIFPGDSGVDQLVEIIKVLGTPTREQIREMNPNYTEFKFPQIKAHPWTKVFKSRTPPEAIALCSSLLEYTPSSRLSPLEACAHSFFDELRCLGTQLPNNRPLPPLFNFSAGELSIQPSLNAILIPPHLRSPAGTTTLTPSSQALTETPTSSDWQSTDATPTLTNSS
NanoLuc-GSK3α, sequence (P49840 whole entry): as above
GSK3α (Homo sapiens (Human), UniProt P49840), sequence (P49840 whole entry): as above

Regarding `CCC1(c2cccc(C(F)(F)F)c2)C2=C(Nc3n[nH]cc31)C(F)C(C)(C)CC2=O` (single isomer, unassigned) [Compound 837646, 4-ethyl-8-fluoro-7,7-dimethyl-4-(3-(trifluoromethyl)phenyl)-2,4,6,7,8,9-hexahydro-5H-pyrazolo[3,4-b]quinolin-5-one], on GSK3α [1], the “relative cellular potency and paralog selectivity at pS202/pThr205 (AT8) compared with pThr231 assay” value is listed as “similar”. The “residence time at GSK3α” value on NanoLuc-GSK3α was “no difference in the residence time”. In addition, the “steady Cmax extending post injection” value in data set [2] was determined as 6 h. Besides, the “target engagement at GSK3α, 24 hr” value on GSK3α [3] (24 hr, both 60 mg/kg and 20 mg/kg) is given as ~50%. On GSK3α [3] (three hours after dosing (Cmax, 60 mg/kg)), the “target engagement for GSK3α, 3 hours” value was “over 90%”. Further, the IC50 was ≤ 0.1 µM in data set [4] (1 nM GSK3α, 4 μM ATP, 30 minute preincubation, read-out: GSK3-A TR-FRET BIOCHEMICAL (TR-FRET), IC50); ≤ 0.1 µM in data set [4] (GSK3-A (TR-FRET 1 mM ATP), IC50, 1 mM ATP); ≤ 0.1 µM in data set [5] (1 nM GSK3b, 2 μM ATP, 30 minute preincubation, read-out: GSK3-B TR-FRET BIOCHEMICAL (TR-FRET), IC50); 1 to 5 µM in data set [5] (GSK3-B (TR-FRET 1 mM ATP), IC50, 1 mM ATP).

Source of the values: US20250313563A1, “GLYCOGEN SYNTHASE KINASE 3 INHIBITORS AND USES THEREOF” (The Broad Institute, Inc., priority 2022, published 2025).
